Laboratory results published in ChEMBL document CHEMBL4725248, “Machine Learning on DNA-Encoded Libraries: A New Paradigm for Hit Finding” (J Med Chem, 2020).

How the values were obtained:
Estrogen receptor = target: T1, Estrogen receptor (Homo sapiens, UniProt P03372); test: Inhibition of His-tagged human ERalpha pre-incubated for 15 mins before fluorescent ligand addition and measured after 1 hr by fluorescence polarization assay
T1 sequence (P03372 whole entry): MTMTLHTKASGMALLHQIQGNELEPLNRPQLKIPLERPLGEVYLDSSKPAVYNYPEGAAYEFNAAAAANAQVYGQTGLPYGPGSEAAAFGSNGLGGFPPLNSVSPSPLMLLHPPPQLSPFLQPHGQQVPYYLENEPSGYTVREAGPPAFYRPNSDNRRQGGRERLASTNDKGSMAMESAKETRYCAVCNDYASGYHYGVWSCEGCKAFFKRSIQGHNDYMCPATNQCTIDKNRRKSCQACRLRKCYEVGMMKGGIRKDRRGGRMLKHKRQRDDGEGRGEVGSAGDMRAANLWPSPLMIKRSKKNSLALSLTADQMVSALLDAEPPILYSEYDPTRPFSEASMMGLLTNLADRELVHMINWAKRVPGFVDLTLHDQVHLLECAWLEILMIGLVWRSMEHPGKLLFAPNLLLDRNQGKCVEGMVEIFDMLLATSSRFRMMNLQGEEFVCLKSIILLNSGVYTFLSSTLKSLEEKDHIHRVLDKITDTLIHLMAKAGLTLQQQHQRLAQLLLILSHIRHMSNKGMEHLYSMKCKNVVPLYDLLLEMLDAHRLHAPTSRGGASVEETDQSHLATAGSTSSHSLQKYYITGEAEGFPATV

[1] = target: T2, Bifunctional epoxide hydrolase 2 (Homo sapiens, UniProt P34913); test: Inhibition of His-tagged human recombinant soluble epoxide hydrolase pre-incubated for 15 mins before Epoxy-fluor7 substrate addition and measured after 20 mins by fluorescence based assay
T2 sequence (P34913 whole entry): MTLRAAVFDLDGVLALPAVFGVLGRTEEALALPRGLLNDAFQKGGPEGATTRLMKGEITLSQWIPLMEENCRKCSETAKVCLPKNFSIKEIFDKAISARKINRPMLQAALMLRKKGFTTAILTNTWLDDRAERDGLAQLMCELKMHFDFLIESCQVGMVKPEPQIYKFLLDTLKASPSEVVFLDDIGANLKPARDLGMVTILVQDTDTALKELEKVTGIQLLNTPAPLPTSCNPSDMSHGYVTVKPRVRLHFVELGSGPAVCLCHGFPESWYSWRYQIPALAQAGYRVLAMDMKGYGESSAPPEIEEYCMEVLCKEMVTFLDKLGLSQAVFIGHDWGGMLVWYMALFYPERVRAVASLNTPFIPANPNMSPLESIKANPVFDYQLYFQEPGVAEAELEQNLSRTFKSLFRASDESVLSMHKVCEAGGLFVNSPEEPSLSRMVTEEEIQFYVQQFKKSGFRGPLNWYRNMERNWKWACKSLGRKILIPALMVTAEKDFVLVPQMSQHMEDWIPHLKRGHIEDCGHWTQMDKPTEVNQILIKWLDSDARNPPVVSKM

[2] = target: Mast/stem cell growth factor receptor Kit (Homo sapiens, UniProt P10721); test: Inhibition of recombinant c-Kit (unknown origin) incubated for 1 hr by ADP-Glo assay
Chain of Mast/stem cell growth factor receptor Kit (P10721 whole entry): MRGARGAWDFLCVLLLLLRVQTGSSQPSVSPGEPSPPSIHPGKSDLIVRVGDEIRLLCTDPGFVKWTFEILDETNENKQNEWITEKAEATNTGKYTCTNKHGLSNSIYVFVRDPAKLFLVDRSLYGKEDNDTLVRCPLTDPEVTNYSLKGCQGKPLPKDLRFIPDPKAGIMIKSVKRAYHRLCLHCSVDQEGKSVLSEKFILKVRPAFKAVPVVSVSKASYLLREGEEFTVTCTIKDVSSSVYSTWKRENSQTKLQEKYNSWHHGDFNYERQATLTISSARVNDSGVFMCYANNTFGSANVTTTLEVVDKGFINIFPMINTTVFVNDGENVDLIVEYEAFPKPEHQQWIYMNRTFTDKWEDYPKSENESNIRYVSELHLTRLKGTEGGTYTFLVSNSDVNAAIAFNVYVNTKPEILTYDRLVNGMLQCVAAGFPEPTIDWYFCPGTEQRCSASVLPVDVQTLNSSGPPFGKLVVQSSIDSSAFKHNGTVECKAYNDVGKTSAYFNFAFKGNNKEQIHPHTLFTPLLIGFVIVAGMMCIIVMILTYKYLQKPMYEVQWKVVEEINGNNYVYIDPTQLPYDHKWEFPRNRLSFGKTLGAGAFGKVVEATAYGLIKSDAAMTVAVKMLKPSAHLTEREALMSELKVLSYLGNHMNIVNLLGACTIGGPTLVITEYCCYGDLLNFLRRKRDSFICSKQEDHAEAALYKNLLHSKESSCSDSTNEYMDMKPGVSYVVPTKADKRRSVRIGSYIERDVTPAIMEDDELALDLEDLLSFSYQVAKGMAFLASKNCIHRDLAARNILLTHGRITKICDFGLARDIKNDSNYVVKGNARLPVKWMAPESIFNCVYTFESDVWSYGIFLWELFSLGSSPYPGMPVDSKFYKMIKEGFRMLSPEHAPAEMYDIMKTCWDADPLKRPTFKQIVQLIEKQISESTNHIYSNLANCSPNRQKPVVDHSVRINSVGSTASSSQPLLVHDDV

| SMILES | IC50 (Estrogen receptor) | IC50 [1] | IC50 [2] |
| --- | --- | --- | --- |
| Cc1ccccc1C(OC(c1ccccc1C)c1ccccc1C)c1ccccc1C | 8 nM |  |  |
| CN1c2ccccc2C2(C)CCCC3Cc4cc(Br)cc(Br)c4OC312 (stereo unspecified) | 20 nM |  |  |
| O=C(Nc1ccc(Sc2ccccc2Cl)cc1)C1CCN(C(=O)c2ccc(F)cc2)CC1 |  | 1 nM |  |
| CC(OC(=O)c1ccc2nc(N)sc2c1)C(=O)Nc1ccc(C(C)(C)C)cc1 (stereo unspecified) |  |  | 9 nM |
| CC(C)COC(=O)N1CCN(C(=O)C=CC(=O)Nc2ccc(Cl)cc2)CC1 |  |  | 21 nM |
| O=C(NC1CCC2CCCC2C1)C1CCCN(S(=O)(=O)c2cccs2)C1 (stereo unspecified) |  | 2 nM |  |
